Results taken from patent publication EP2647638A1, “Substituted tricyclic compounds with activity towards ep1 receptors” (Almirall, S.A., priority 2012, dated 2013).

target: T1, human EP1 receptor (Homo sapiens, UniProt P34995); experiment: Human EP1 receptor radioligand binding assay; conditions: transfected HEK-293 cell membranes, [3H]-PGE2 (10 nM), pH 6.0, 25 °C for 60 minutes
T1 construct: expressed in transfected cells; host or cells: HEK-293 cell membranes
T1 sequence (P34995 1-402): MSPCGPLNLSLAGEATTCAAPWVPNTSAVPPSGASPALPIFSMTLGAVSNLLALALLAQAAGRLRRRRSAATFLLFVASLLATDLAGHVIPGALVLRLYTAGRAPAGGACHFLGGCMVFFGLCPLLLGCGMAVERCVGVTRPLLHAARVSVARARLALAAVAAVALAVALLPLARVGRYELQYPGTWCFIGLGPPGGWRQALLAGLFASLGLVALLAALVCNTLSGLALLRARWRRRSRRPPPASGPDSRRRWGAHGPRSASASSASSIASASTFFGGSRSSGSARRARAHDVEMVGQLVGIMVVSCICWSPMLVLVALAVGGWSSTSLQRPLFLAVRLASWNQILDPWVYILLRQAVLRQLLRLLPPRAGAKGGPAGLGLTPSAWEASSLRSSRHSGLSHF
Method: To investigate binding properties of EP1 receptor ligands to human EP1 receptor, transfected HEK-293 cell membranes and [3H]-PGE2 (Perkin Elmer) were used. In 96-well plates the assay was carried out with a total reaction volume of 250 µl, containing 25 µl of membrane suspension (30 µg protein/well), 25 µl of [3H]-PGE2 (10 nM) in either absence or presence of 25 µl of either buffer or PGE2 (10 µM) for total and non-specific binding, respectively. Binding buffer contained 10 mM MES, 1 mM MgCl2 and 1 mM EDTA at pH 6.0. Plates were incubated at 25 °C for 60 minutes. After the incubation period, 200 µl of incubate were transferred to MultiScreen HTS, FB plates (Millipore), filtered and plates were washed 6 times with ice-cold 10 mM MES, 1 mM MgCl2 and 1 mM EDTA at pH 6.0. Filters were dried and counted in a MicroBeta scintillation counter (Perkin-Elmer) using EcoScint liquid scintillation cocktail.
Percentage inhibition was calculated relating compounds activity to the 0% inhibition of the wells incubated with 10 nM [3H]-PGE2 alone (total binding) and 100% inhibition of the wells incubated with 10 nM [3H]-PGE2 plus 10 µM PGE2 (non-specific binding). Competition binding curves were carried out by assaying 6 different concentrations with duplicated points. The inhibition constant (Ki) of each compound was calculated by the Cheng-Prusoff equation: Kl = IC50 /(1+⌊L⌋/KD) [formula] where IC50 is the concentration of compound that displaces the binding of radioligand by 50%, [L] is the free concentration of radioligand and KD is the dissociation constant of each radioligand. IC50 values were obtained by fitting the data with non-linear regression using XIFit software (IDBS).

| Ki | SMILES |
| --- | --- |
| < 100 nM | Cc1cc(C(=O)O)ccc1[C@H]1Nc2ccc(Cl)cc2[C@@H]2OCCC[C@H]12 (racemic) [Example 10, 4-((4aR, 5S, 10bR)-9-chloro-3,4,4a, 5,6, 10b-hexahydro-2H pyrano[3,2-c]quinolin-5-yl)-3-methylbenzoic acid] |
| > 500 nM | O=C(O)c1ccc([C@@H]2Nc3ccc(Br)cc3[C@@H]3OCCC[C@H]23)cc1 [Example 2, 4-((4aR,5R,10bR)-9-bromo-3,4,4a,5,6,10b-hexahydro-2H-pyrano[3,2-c]quinolin-5-yl)benzoic acid] |
| 100 to 500 nM | COc1ccc2c(c1)[C@@H]1OCCC[C@@H]1[C@H](c1ccc(C(=O)O)cc1C)N2 [Example 5, 4-((4aR, 5R, 10bR)-3,4,4a, 5,6, 10b-hexahydro-9-methoxy-2H pyrano[3,2-c]quinolin-5-yl)-3-methylbenzoic acid] |
| 100 to 500 nM | Cc1ccc2c(c1)[C@@H]1OCCC[C@@H]1[C@H](c1ccc(C(=O)O)cc1C)N2 [Example 6, 4-((4aR, 5R, 10bR)-3,4,4a, 5,6, 10b-hexahydro-9-methyl-2H pyrano[3,2-c]quinolin-5-yl)-3-methylbenzoic acid] |
